Measured values published in patent publication US10322112B2, “Compound combinations for attenuation of bacterial virulence” (priority 2016, dated 2019).

What was measured:
LasR = biological target: T1, LasR (Pseudomonas aeruginosa, UniProt P25084); assay: E. coli reporter gene primary agonism assay, LasR; format: cell-based; settings: compounds at 100 mm; E. coli reporter strain JLD271/pJN105L/pSC11; 100 mm OdDHL = 100%; error ±10%
T1 construct: expressed in transfected cells; host or cells: E. coli JLD271
Experimental: Percent agonism of a given non-native inducer in a given bacterium and QS system receptor is measured with resepct to the maximum level of agonism (activation) by the native ligand of that receptor in the given bacterium. Percent antagonism is measured in competitive assays. The QS system of interest is activated to 100% with added or endogenous native ligand and the % antagonism of the non-native inducer is assessed with respect to 100% activation by the native inducer. The native ligand which induces LasR is OdDHL, which induces RhlR is BHL and which induces PqsR is PQS. As described herein and in cited references, assays for assessment of % agonism or % atangonism may be performed in E. coli systems (heterologous) or in the bacterium of interest, e.g., Pseudomonas. Dependent upon the assay system employed native ligand may be endogenously present or it may be exogenously supplied to the assay system. […] In antagonism assays using the native strains with functional QS systems, e.g., those of P. aeruginosa, endogenous native ligand is made in the system, so no native ligand is added. In native strains having one or more non-functional QS systems (mutant strains), e.g., P. aeruginosa mutants with non-functional QS systems, native ligand is added at about 10-100× the EC50 of the native ligand. In the agonism assay, native ligand is added as a control. Details of the assays are provided herein in Example 9 and in references cited in Example 9.

P. aeruginosa (PAO1) = assay: Pyocyanin assay; format: cell-based, Pseudomonas aeruginosa; settings: MOPS Glutamate and Glucose media, complete or iron/phosphate depleted, 17 h, 100 μM (compounds 1, 2, 3), 25 μM (compound 4), relative to DMSO
Experimental: A. Pyocyanin Assay Protocol. The amount of pyocyanin in P. aeruginosa culture supernatants was measured following a reported protocol (O'Loughlin et al., 2013) with modifications. A 10 mL overnight culture of P. aeruginosa PAO1 was grown for 16 h. DMSO stock solutions of test compounds (20 mM) were prepared, and 10 μL or 5 μL aliquots were added to sterile 15 mL borosilicate glass test tubes. An inoculating culture was prepared by diluting the overnight culture 1:100 into freshly prepared assay medium (see above), and 2 mL aliquots of this subculture were added to each test tube (0.5% DMSO, final). The cultures were grown for 17 h, and the final cell density measured by reading OD600. Relative pyocyanin levels were measured by first pelleting 1.5 mL of well-mixed culture at 4,000 g for 10 min, transferring 200 μL of the resulting supernatant to a clear, plastic 96-well microtiter plate, and reading absorbance at 695 nm. Media background absorbance (measured from a “no bacteria” control) was subtracted, the resulting values growth normalized by dividing by the final OD600378, and the data plotted relative to a DMSO-treated positive control. B. Rhamnolipid Assay Protocol. Rhamnolipid was quantified following a reported protocol (Koch et al., 1991) with modifications. Assay cultures were prepared and grown in an identical manner to the pyocyanin assay above. Aliquots of the final culture supernatant (1 mL) were transferred to 1 dram glass vials and extracted twice with 1 mL diethyl ether. The pooled organic fractions were evaporated to dryness, and the resulting residue reconstituted in 200 μL de-ionized water. In a 1.7 mL plastic centrifuge tube, 50 μL of this extract was diluted into 450 μL of a solution of 0.19% (w/v) orcinol in 50% (v/v) concentrated H2SO4 (or 20 μL extract into 480 μL orcinol solution for cultures grown in MOPS Glucose medium). The tubes were vortexed thoroughly to mix and incubated in an 80° C. heating block for 30 min. After briefly cooling to room temperature, 200 μL of the resulting yellow to yellow-orange solution was transferred to a clear 96-well microtiter plate, and the absorbance at 421 nm measured. Media background absorbance (measured from a “no bacteria” control) was subtracted, the resulting values growth normalized by dividing by the final OD600, and the data plotted relative to a DMSO-treated positive control. C. Elastase B Assay Protocol. The amount of elastase B in P. aeruginosa culture supernatants was measured following a reported protocol (Geske et al., 2007) with modifications. Assay cultures were prepared and grown in an identical manner to the pyocyanin assay above. Aliquots of the final culture supernatant (50 μL) were added to the wells of a clear, plastic 96-well plate. To each well, 150 μL of 0.5% (w/v) elastin-congo red conjugate (Elastin Products Co.) in Tris buffer (10 mM Tris-HCl, 1 mM CaCl2, pH 7.2) was added. The plate was sealed with a polypropylene storage mat (Costar 3080) and incubated in a 37° C. shaking incubator (200 rpm) attached to a Labquake rotator for 12 h (for experiments in SCFM2) or 24 h (for experiments in MOPS medium). To quantify elastase B activity, the undigested elastin was pelleted by centrifugation of the assay plate at 1,500 g for 10 min, after which 100 μL of the supernatant was transferred to a new, clear 96-well plate, and the absorbance at 490 nm measured. Media background absorbance (measured from a “no bacteria” control) was subtracted, the resulting values growth normalized by dividing by the final OD600, and the data plotted relative to a DMSO-treated positive control.

T1 sequence (P25084 whole entry): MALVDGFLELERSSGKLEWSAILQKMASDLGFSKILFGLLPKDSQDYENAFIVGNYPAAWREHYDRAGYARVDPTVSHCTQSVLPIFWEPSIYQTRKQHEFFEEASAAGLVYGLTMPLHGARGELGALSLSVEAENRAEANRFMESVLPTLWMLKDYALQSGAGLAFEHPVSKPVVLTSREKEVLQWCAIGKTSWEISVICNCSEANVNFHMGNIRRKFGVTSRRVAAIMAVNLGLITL

In the case of O=C(N[C@H]1CCOC1=O)C1CCCC1 [compound 3], the “Activation [%] LasR” value (LasR) is reported as −4% and the “pyocyanin production, single compound screens” value (P. aeruginosa (PAO1)) is reported as “blocked pyocyanin production under nearly all of the environmental conditions tested”.
